Test systems include A498 renal; ACHN renal; HL-60(TB) leukemia; MALME-3M melanoma; NCI-H522 lung; RXF 393 renal; SF-268 CNS; SF-539 CNS; SR leukemia; UACC-257 melanoma.
Holding throughout (assay): DTP human tumour cell line panel, 48 h

From PubChem BioAssay (NCI) come the findings set out here.

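Assay format: 96-well plates, 48-hour exposure. GI50 marks 50% less growth. TGI is the concentration that stops growth completely.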 Bounds are passed on as bounds.

A word on the GI50: it is the concentration giving 50% growth inhibition. As usually defined, the TGI is the concentration giving total growth inhibition. The low end stands for greater sensitivity of the cells, the high end for lower sensitivity of the cells. On to `CCN1C(=O)N(CC)C2C1NN=c1s/c(=C3\C(=O)N(CC(C)(C)C)c4ccccc43)c(=O)n12` (stereo not given), for which the GI50 is 1.12 µM with A498 renal; 4.04 µM with ACHN renal; 3.78 µM in the experiment with HL-60(TB) leukemia; 10 µM in the experiment on MALME-3M melanoma; 3.19 µM in the experiment on NCI-H522 lung; 1.83 µM with RXF 393 renal. Besides, the GI50 in the experiment with SF-268 CNS was 4.8 µM; with SF-539 CNS, 2.95 µM; in the experiment on SR leukemia, 0.755 µM; with UACC-257 melanoma, 13.1 µM. The concentration for total growth inhibition (TGI) was determined as 4.85 µM with A498 renal; 18.1 µM in the experiment with ACHN renal; 22.6 µM in the experiment on HL-60(TB) leukemia; 25.5 µM in the experiment with MALME-3M melanoma; 18.5 µM in the experiment with NCI-H522 lung; 12.8 µM in the experiment with RXF 393 renal. Besides, the concentration for total growth inhibition (TGI) in the experiment on SF-268 CNS came out at 32.1 µM; with SF-539 CNS, 11.1 µM; in the experiment on SR leukemia, 41.6 µM; in the experiment on UACC-257 melanoma, 37.9 µM.

`CCOP(=O)(OCC)OC1C=CC2CCC1C2` (stereo not given): the TGI in the experiment on A498 renal, in the experiment on ACHN renal, with HL-60(TB) leukemia, in the experiment on MALME-3M melanoma, in the experiment on NCI-H522 lung and in the experiment on RXF 393 renal was greater than 100 µM throughout. The concentration for total growth inhibition (TGI) is greater than 100 µM with SF-268 CNS, greater than 100 µM in the experiment on SF-539 CNS, 58.7 µM in the experiment on SR leukemia and greater than 100 µM in the experiment with UACC-257 melanoma.

For `NC(=O)c1cc(S(=O)(=O)Nc2nnc(-c3ccccc3)c(-c3ccccc3)n2)c(SCc2ccccc2)cc1Cl`, the GI50 is greater than 88.6 µM in the experiment on A498 renal; greater than 100 µM in the experiment on ACHN renal; 23.1 µM in the experiment on HL-60(TB) leukemia; greater than 100 µM with MALME-3M melanoma; greater than 44 µM in the experiment on NCI-H522 lung; 75.3 µM in the experiment with RXF 393 renal. Moreover, the GI50 was greater than 87.5 µM in the experiment with SF-268 CNS, greater than 44.3 µM with SF-539 CNS, 42.2 µM with SR leukemia and greater than 48.2 µM in the experiment with UACC-257 melanoma. Moreover, the TGI in the experiment with A498 renal was greater than 100 µM; in the experiment with ACHN renal, greater than 100 µM; in the experiment on HL-60(TB) leukemia, 49.6 µM; with MALME-3M melanoma it was greater than 100 µM; in the experiment with NCI-H522 lung it was greater than 68.3 µM; in the experiment on RXF 393 renal, greater than 100 µM. In addition, the TGI in the experiment on SF-268 CNS was greater than 100 µM; in the experiment on SF-539 CNS it was greater than 63.9 µM; in the experiment with SR leukemia, greater than 70.9 µM; in the experiment with UACC-257 melanoma, greater than 89.9 µM.

For the compound `COCC1(CO)C(=O)C2CCN1CC2` (stereo not given), the GI50 in the experiment on A498 renal was 23 µM; in the experiment on ACHN renal, 14.5 µM; in the experiment on HL-60(TB) leukemia, 18.9 µM; with MALME-3M melanoma, 12.6 µM; with NCI-H522 lung, 4.28 µM; with RXF 393 renal, 15.7 µM. The GI50 is greater than 90.1 µM in the experiment on SF-268 CNS, greater than 40.7 µM in the experiment with SF-539 CNS, 18.4 µM with SR leukemia and 17.7 µM with UACC-257 melanoma. The concentration for total growth inhibition (TGI) turned out to be 63.9 µM with A498 renal; 28.7 µM in the experiment with ACHN renal; 45.2 µM with HL-60(TB) leukemia; 28.3 µM in the experiment on MALME-3M melanoma; 11.7 µM in the experiment with NCI-H522 lung; 30.2 µM in the experiment with RXF 393 renal. The TGI in the experiment on SF-268 CNS was greater than 100 µM; in the experiment on SF-539 CNS it was greater than 55.7 µM; in the experiment with SR leukemia, 58.4 µM; with UACC-257 melanoma, 34 µM.

Consider `CC(C)C(=O)Nc1nc2c(ncn2C2OC(CO)C(O)C2O)c(=O)[nH]1` (stereo not given), for which the total growth inhibition concentration (TGI) in the experiment on A498 renal, in the experiment on ACHN renal, in the experiment on HL-60(TB) leukemia, in the experiment on MALME-3M melanoma, in the experiment on NCI-H522 lung and in the experiment with RXF 393 renal was greater than 100 µM in each case. Also, the concentration for total growth inhibition (TGI) in the experiment with SF-268 CNS, in the experiment with SF-539 CNS, in the experiment on SR leukemia and in the experiment with UACC-257 melanoma was greater than 100 µM each time.

As for `CCOc1ccncc1[N+](=O)[O-]`, the TGI with A498 renal, with ACHN renal, in the experiment with HL-60(TB) leukemia, in the experiment on MALME-3M melanoma, with NCI-H522 lung and with RXF 393 renal was greater than 100 µM throughout. For the same compound, the TGI in the experiment with SF-268 CNS, with SF-539 CNS, in the experiment on SR leukemia and in the experiment with UACC-257 melanoma was greater than 100 µM each time.

Take `Cc1cc(S(=O)(=O)O)c(NC(=O)C(=O)Cc2cc(=O)oc3cc(O)ccc23)cc1Cl`: the TGI with A498 renal, in the experiment on ACHN renal, in the experiment on HL-60(TB) leukemia, in the experiment on MALME-3M melanoma, in the experiment with NCI-H522 lung and with RXF 393 renal was greater than 100 µM in each case. Further, the TGI with SF-268 CNS, in the experiment with SF-539 CNS, with SR leukemia and with UACC-257 melanoma was greater than 100 µM in each case.
